The values below come from patent publication US20160075695A1, “BENZIMIDAZOLE DERIVATIVES AS BROMODOMAIN INHIBITORS” (Gilead Sciences, Inc., priority 2013, published 2016).

In experiment [1] the target is T1, BRD4-1 (Homo sapiens, UniProt O60885).
T1 construct: made in house; host or cells: Escherichia coli
The experiment can be described thus: HTRF (TR-FRET) assay, BRD4-1 binding to acetylated histone H4 peptide. The note with it: 60 nM BRD4-1, 200 nM H4 peptide, 60 minutes at 25° C.; geometric mean of a minimum of four determinations; read-out: HTRF BRD4-1 (IC50). Here is the method: (§1) Binding of the two tandem bromodomains, BRD4-1 and BRD4-2, to an acetylated histone H4 peptide was measured using a homogeneous time resolved fluorescence resonance energy transfer (TR-FRET) assay. […] BRD4-1 and BRD4-2 were expressed and purified from Escherichia coli as N-terminal His6-tagged proteins. An XL665 labeled anti-His antibody (Cisbio) was used to specifically bind BRD4 and a cryptate labeled streptavidin protein was used because it specifically recognized the biotinylated H4 peptide. […] After an assay reaction time of 60 minutes at 25° C., binding was measured with 2 nM crytptate labeled streptavidin and 10 nM anti-His-XL665 antibody. TR-FRET signal was detected on an Envision plate reader (Ex: 320 nm; Em: 615/665 nm; 100 us delay and 200 μs read window). […] All IC50 values represent geometric mean values of a minimum of four determinations.

For experiment [2], the target named is T2, BRD4-2 (Homo sapiens, UniProt O60885).
T2 construct: made in house; host or cells: Escherichia coli
The experiment can be described thus: HTRF (TR-FRET) assay, BRD4-2 binding to acetylated histone H4 peptide. The note with it: 120 nM BRD4-2, 200 nM H4 peptide, 60 minutes at 25° C.; geometric mean of a minimum of four determinations; read-out: HTRF BRD4-2 (IC50). Here is the method: as §1
(In TR-FRET formats the signal depends on donor and acceptor labels being close together.)

The target of experiment [3] is T1, BRD4-1. In words: Alpha assay, BRD4-1 binding to acetylated histone H4 peptide. The note with it: 15 nM BRD4-1, 200 nM H4 peptide, 60 minutes at 25° C.; geometric mean of a minimum of four determinations; read-out: Alpha Assay (IC50). As for the experimental part: Binding of the bromodomain BRD4-I to an acetylated histone H4 peptide was measured using a bead-based Amplified Luminescent Proximity Homogeneous Assay (ALPHA). […] BRD4-I was expressed and purified from Escherichia coli as an N-terminal His6-tagged protein. Nickel-Chelate ALPHA acceptor beads (Perkin Elmer) were used to specifically bind BRD4-1 and ALPHA streptavidin donor beads (Perkin Elmer) were used because they specifically recognized the biotinylated H4 peptide. […] Assays were performed in 50 mM Hepes (pH 7.5), 150 mM NaCl, 0.1 mg/ml BSA, 0.01% (v/v) Brij, 0.5% (v/v) DMSO, 200 nM H4 peptide and 15 nM of BRD4-1 protein. After an assay reaction time of 60 minutes at 25° C., binding was measured with 20 μg/ml streptavidin donor beads and 20 μg/ml nickle-chelate acceptor beads. ALPHA signal was detected on an Envision plate reader (Ex: 320 nm; Em: 570 nm; Ex time: 180 ms). […] All IC50 values represent geometric mean values of a minimum of four determinations.

With `Cc1n[nH]c(C)c1-c1cc(-c2c(C)noc2C)cc2nc(C3CC3)n(C)c12` [Compound 1020-72, 4-(2-cyclopropyl-7-(3,5-dimethyl-1H-pyrazol-4-yl)-1-methyl-1H-benzo[d]imidazol-5-yl)-3,5-dimethylisoxazole], the figures for the IC50 in experiment [1], in experiment [2] and in experiment [3] were 101 nM, 69.1 nM and 12.3 nM, respectively.
For `Cc1ccc2ncccc2c1-c1cc(-c2c(C)noc2C)cc2[nH]c(C(F)(F)F)nc12` [Compound 1020-92, 3,5-Dimethyl-4-(4-(6-methylquinolin-5-yl)-2-(trifluoromethyl)-1H-benzo[d]imidazol-6-yl)isoxazole], the IC50 is 133 nM in experiment [1], 102 nM in experiment [2] and 37.7 nM in experiment [3].
The like results for `Cc1nc2cc(-c3c(C)noc3C)cc(-c3c(C)n[nH]c3C)c2[nH]1` [Compound 1020-77, 4-(7-(3,5-Dimethyl-1H-pyrazol-4-yl)-2-methyl-1H-benzo[d]imidazol-5-yl)-3,5-dimethylisoxazole] were, in that order, 244 nM, 64.8 nM and 42.7 nM.
Taken in the same sequence, the figures for `Cc1ccc2ncccc2c1-c1cc(-c2c(C)noc2C)cc2[nH]c(C(O)CCO)nc12` (stereo not shown) [Compound 1020-89, 1-(6-(3,5-dimethylisoxazol-4-yl)-4-(6-methylquinolin-5-yl)-1H-benzo[d]imidazol-2-yl)propane-1,3-diol] were 379 nM, 151 nM and 130 nM.
For the compound `CSc1nc2c(S(=O)(=O)NC3CCCC3)cc(-c3c(C)noc3C)cc2[nH]1` [Compound 1020-4, N-Cyclopentyl-6-(3,5-dimethylisoxazol-4-yl)-2-(methylthio)-1H-benzo[d]imidazole-4-sulfonamide], the IC50 is 337 nM in experiment [1] and 230 nM in experiment [2].
The like results for `Cc1noc(C)c1-c1cc(S(=O)(=O)NC2CCCC2)c2nc(NCC3CC3)[nH]c2c1` [Compound 1020-1, N-Cyclopentyl-2-(cyclopropylmethylamino)-6-(3,5-dimethylisoxazol-4-yl)-1H-benzo[d]imidazole-4-sulfonamide] were, in that order, 201 nM and 97.6 nM.
As to `Cc1n[nH]c(C)c1-c1cc(-c2c(C)noc2C)cc2nc(C3CC3(F)F)[nH]c12` (stereo not shown) [Compound 1020-78, 4-(2-(2,2-Difluorocyclopropyl)-7-(3,5-dimethyl-1H-pyrazol-4-yl)-1H-benzo[d]imidazol-5-yl)-3,5-dimethylisoxazole], the concentration for half-maximal inhibition (IC50) in experiment [1] is 161 nM; in experiment [2], 94.1 nM; in experiment [3] it was 25.1 nM.
Taken in the same sequence, the figures for `Cc1noc(C)c1-c1cc(NC2CCCC2)c2nc(C3CC3)[nH]c2c1` [Compound 1020-50, N-Cyclopentyl-2-cyclopropyl-6-(3,5-dimethylisoxazol-4-yl)-1H-benzo[d]imidazol-4-amine] were 299 nM, 318 nM and 125 nM.
Taken in the same sequence, the figures for `Cc1n[nH]c(C)c1-c1cc(-c2c(C)noc2C)cc2[nH]c(NCC3CC3)nc12` [Compound 1020-79, N-(Cyclopropylmethyl)-4-(3,5-dimethyl-1H-pyrazol-4-yl)-6-(3,5-dimethylisoxazol-4-yl)-1H-benzo[d]imidazol-2-amine] were 161 nM, 87.2 nM and 33.6 nM.
As to `Cc1cnn(C)c1-c1cc(-c2c(C)noc2C)cc2nc(C3CC3)[nH]c12` [Compound 1020-12, 4-(2-Cyclopropyl-7-(1,4-dimethyl-1H-pyrazol-5-yl)-1H-benzo[d]imidazol-5-yl)-3,5-dimethylisoxazole], the IC50 in experiment [1] came to 138 nM; in experiment [2], 69.2 nM; in experiment [3], 46.2 nM.
For `Cc1noc(C)c1-c1cc(S(=O)(=O)NC2CCCC2)c2nc(Cc3ccccc3)[nH]c2c1` [Compound 1020-141, 2-Benzyl-N-cyclopentyl-6-(3,5-dimethylisoxazol-4-yl)-1H-benzo[d]imidazole-4-sulfonamide], the IC50 in experiment [1] is 704 nM; in experiment [2], 111 nM.
For the compound `Cc1ccc2ncccc2c1-c1cc(-c2c(C)noc2C)cc2[nH]c(-c3cnn(C)c3)nc12` [Compound 1020-88, 3,5-Dimethyl-4-(2-(1-methyl-1H-pyrazol-4-yl)-4-(6-methylquinolin-5-yl)-1H-benzo[d]imidazol-6-yl)isoxazole], the 50% inhibitory concentration (IC50) in experiment [1] worked out at 104 nM; in experiment [2], 131 nM; in experiment [3], 15.9 nM.
Taken in the same sequence, the figures for `Cc1n[nH]c(C)c1-c1cc(-c2c(C)noc2C)cc2nc(N)[nH]c12` [Compound 1020-96, 4-(3,5-Dimethyl-1H-pyrazol-4-yl)-6-(3,5-dimethylisoxazol-4-yl)-1H-benzo[d]imidazol-2-amine] were 276 nM, 96.9 nM and 53.7 nM.
For the compound `Cc1noc(C)c1-c1cc(S(=O)(=O)NC2CCCC2)c2nc(NCC(F)(F)F)[nH]c2c1` [Compound 1020-148, N-Cyclopentyl-6-(3,5-dimethylisoxazol-4-yl)-2-(2,2,2-trifluoroethylamino)-1H-benzo[d]imidazole-4-sulfonamide], the IC50 in experiment [1] was found to be 186 nM; in experiment [2], 180 nM.
For `Cc1noc(C)c1-c1cc(S(=O)(=O)NC2CCCC2)c2nc([S+](C)[O-])[nH]c2c1` (stereo not shown) [Compound 1020-5, N-Cyclopentyl-6-(3,5-dimethylisoxazol-4-yl)-2-(methylsulfinyl)-1H-benzo[d]imidazole-4-sulfonamide], the IC50 in experiment [1] stood at 616 nM; in experiment [2], 357 nM.
For the compound `COc1nc2c(-c3c(C)ccc4ncccc34)cc(-c3c(C)noc3C)cc2[nH]1` [Compound 1020-90, 4-(2-methoxy-4-(6-methylquinolin-5-yl)-1H-benzo[d]imidazol-6-yl)-3,5-dimethylisoxazole], the IC50 in experiment [1] is 110 nM; in experiment [2] it was 121 nM; in experiment [3], 29.9 nM.
Taken in the same sequence, the figures for `Cc1n[nH]c(C)c1-c1cc(-c2c(C)noc2C)cc2[nH]c(NC3CC3)nc12` [Compound 1020-81, N-Cyclopropyl-4-(3,5-dimethyl-1H-pyrazol-4-yl)-6-(3,5-dimethylisoxazol-4-yl)-1H-benzo[d]imidazol-2-amine] were 169 nM, 119 nM and 50.7 nM.
The like results for `Cc1ccnc(C)c1-c1cc(-c2c(C)noc2C)cc2nc(C3CC3)[nH]c12` [Compound 1020-57, 4-(2-Cyclopropyl-7-(2,4-dimethylpyridin-3-yl)-1H-benzo[d]imidazol-5-yl)-3,5-dimethylisoxazole] were, in that order, 109 nM, 54.4 nM and 22.6 nM.
Taken in the same sequence, the figures for `Cc1noc(C)c1-c1cc(N2C(=O)CCC2C)c2nc(C3CC3)[nH]c2c1` (stereo not shown) [Compound 1020-136, 1-(2-Cyclopropyl-6-(3,5-dimethylisoxazol-4-yl)-1H-benzo[d]imidazol-4-yl)-5-methylpyrrolidin-2-one] were 823 nM, 727 nM and 513 nM.
As for `Cc1noc(C)c1-c1cc(C(O)C2CCCC2)c2nc(C3CC3)[nH]c2c1` (stereo not shown) [Compound 1020-121, Cyclopentyl(2-cyclopropyl-6-(3,5-dimethylisoxazol-4-yl)-1H-benzo[d]imidazol-4-yl)methanol], the results for the IC50 in experiment [1], in experiment [2] and in experiment [3] were 95.2 nM, 80.8 nM and 24.7 nM, respectively.
Taken in the same sequence, the figures for `CC/C=C(\CC)c1cc(-c2c(C)noc2C)cc2nc(C3CC3)[nH]c12` [Compound 1020-28, (E)-4-(2-Cyclopropyl-4-(hex-3-en-3-yl)-1H-benzo[d]imidazol-6-yl)-3,5-dimethylisoxazole] were 71.8 nM, 65.5 nM and 18.1 nM.
Taken in the same sequence, the figures for `CCC(O)(CC)c1cc(-c2c(C)noc2C)cc2c1nc(C1CC1)n2C` [Compound 1020-132, 3-(2-Cyclopropyl-6-(3,5-dimethylisoxazol-4-yl)-1-methyl-1H-benzo[d]imidazol-4-yl)pentan-3-ol] were 610 nM, 883 nM and 573 nM.
Taken in the same sequence, the figures for `Cc1noc(C)c1-c1cc(C(O)(c2ccccc2)c2ccccc2)c2nc(C3CC3)[nH]c2c1` [Compound 1020-102, (2-Cyclopropyl-6-(3,5-dimethylisoxazol-4-yl)-1H-benzo[d]imidazol-4-yl)diphenylmethanol] were 101 nM, 75.7 nM and 14.3 nM.

By IC50 is commonly meant the concentration needed to halve the response being measured.
